# Structures can show the parent of a compound that is named as a salt.
# Key:
# [1] = molecular target: histone deacetylase activity (HeLa nuclear extract); assay: HDAC fluorescent activity assay (Biomol, Fluor de Lys substrate); format: biochemical; conditions: IC50 range
# Experimental: The ability of compounds to inhibit histone deacetylase activities was measured using the commercially available HDAC fluorescent activity assay from Biomol. In brief, the Fluor de Lys™ substrate, a lysine with an epsilon-amino acetylation, is incubated with the source of histone deacetylase activity (HeLa nuclear extract) in the presence or absence of inhibitor. Deacetylation of the substrate sensitises the substrate to Fluor de Lys™ developer, which generates a fluorophore.
# Data are expressed as a percentage of the control, measured in the absence of inhibitor, with background signal being subtracted from all samples, as follows:— % activity=[(S^i−B)/(S^o−B)]×100 where S^i is the signal in the presence of substrate, enzyme and inhibitor, S^o is the signal in the presence of substrate, enzyme and the vehicle in which the inhibitor is dissolved, and B is the background signal measured in the absence of enzyme.
# Histone deacetylase activity from crude nuclear extract derived from HeLa cells was used for screening. The preparation, purchased from 4C (Seneffe, Belgium), was prepared from HeLa cells harvested whilst in exponential growth phase. The nuclear extract is prepared according to Dignam JD1983 Nucl. Acid. […] The final buffer composition was 20 mM Hepes, 100 mM KCl, 0.2 mM EDTA, 0.5 mM DTT, 0.2 mM PMSF and 20% (v/v) glycerol.
# [2] = tested on: U937; assay: U937 cell inhibition assay (WST-1 cell viability); format: cell-based; conditions: U937 cells, 72-96 h, WST-1 assay, IC50 range
# Experimental: (§1) Cancer cell lines (U937 and HUT) growing in log phase were harvested and seeded at 1000-2000 cells/well (100 μl final volume) into 96-well tissue culture plates. Following 24 h of growth cells were treated with compound. Plates were then re-incubated for a further 72-96 h before a WST-1 cell viability assay was conducted according to the suppliers (Roche Applied Science) instructions.
# (§2) Data were expressed as a percentage inhibition of the control, measured in the absence of inhibitor, as follows:— % inhibition=100−[(S^i/S^o)×100] where S^i is the signal in the presence of inhibitor and S^o is the signal in the presence of DMSO.
# (§3) Dose response curves were generated from 8 concentrations (top final concentration 10 μM, with 3-fold dilutions), using 6 replicates.
# (§4) IC50 values were determined by non-linear regression analysis, after fitting the results to the equation for sigmoidal dose response with variable slope (% activity against log concentration of compound), using Graphpad Prism software.
# (§5) IC50 results were allocated to one of 3 ranges as follows: […]
# [3] = tested on: HUT; assay: HUT cell inhibition assay (WST-1 cell viability); format: cell-based; conditions: HUT cells, 72-96 h, WST-1 assay, IC50 range
# Experimental: as §1, §2, §3, §4, §5
# [4] = tested on: HeLa cells; assay: HeLa cell inhibition assay (SRB cell viability); format: cell-based; conditions: 72 h, IC50 range
# Experimental: HeLa cells growing in log phase were harvested and seeded at 1000 cells/well (200 μl final volume) into 96-well tissue culture plates. Following 24 h of cell growth cells were treated with compounds (final concentration of 20 μM). Plates were then re-incubated for a further 72 h before a sulphorhodamine B (SRB) cell viability assay was conducted according to Skehan 1990 J Natl Canc Inst 82, 1107-1112.
# as §2
# IC50 values were determined by non-linear regression analysis, after fitting the results of eight data points to the equation for sigmoidal dose response with variable slope (% activity against log concentration of compound), using Graphpad Prism software.
# as §5
IC50 [1] [nM],"IC50 ([2]; Homo sapiens, U-937) [nM]","IC50 ([4]; Homo sapiens, HeLa) [nM]",IC50 [2] [nM],IC50 [4] [nM],Compound,IC50 [3] [nM]
< 100,< 330,< 330,,,"O=C(NO)c1cnc(N2CC3C(C2)C3NS(=O)(=O)c2ccc3ccccc3c2)nc1 (centres unmarked) [Example 1, N-Hydroxy 2-{6-[(2-naphthylsulfonyl)amino]-3-azabicyclo[3.1.0]hex-3-yl}pyrimidine-5-carboxamide trifluoroacetate]",< 330
< 100,331 to 3300,331 to 3300,,,"O=C(NO)c1cnc(N2CC3C(C2)C3NCCc2ccccc2)nc1 (centres unmarked) [Example 38, N-Hydroxy 2-{6-[(2-phenylethyl)amino]-3-azabicyclo[3.1.0]hex-3-yl}pyrimidine-5-carboxamide]",< 330
< 100,331 to 3300,> 3300,,,"O=C(NO)c1cnc(N2CC3CN(C(=O)CCCOc4ccccc4)CC3C2)nc1 (centres unmarked) [Example 78, N-Hydroxy 2-[5-(4-phenoxybutyryl)hexahydropyrrolo[3,4-c]pyrrol-2(1H)-yl]pyrimidine-5-carboxamide]",331 to 3300
< 100,331 to 3300,331 to 3300,,,"O=C(CCCOc1ccccc1)NC1C2CN(c3ncc(C(=O)NO)cn3)CC21 (centres unmarked) [Example 15, N-Hydroxy 2-[6-(4-phenoxybutyrylamino)-3-azabicyclo[3.1.0]hex-3-yl]pyrimidine-5-carboxamide]",331 to 3300
< 100,> 3300,> 3300,,,"O=C(NO)c1cnc(NC2C3CN(S(=O)(=O)c4ccc5ccccc5c4)CC32)nc1 (centres unmarked) [Example 69, N-Hydroxy 2-{[3-(2-naphthylsulfonyl)-3-azabicyclo[3.1.0]hex-6-yl]amino}pyrimidine-5-carboxamide]",331 to 3300
< 100,331 to 3300,331 to 3300,,,"O=C(NO)c1cnc(N2CC3C(C2)C3N2Cc3ccccc3C2)nc1 (centres unmarked) [Example 64, N-Hydroxy 2-[6-(1,3-dihydro-2H-isoindol-2-yl)-3-azabicyclo[3.1.0]hex-3-yl]pyrimidine-5-carboxamide]",< 330
,331 to 3300,331 to 3300,,,"O=C(CCCCCc1ccccc1)NC1C2CN(c3ncc(C(=O)NO)cn3)CC21 (centres unmarked) [Example 8, N-Hydroxy 2-[6-(6-phenylhexanoyl)amino-3-azabicyclo[3.1.0]hex-3-yl]-pyrimidine-5-carboxamide]",< 330
,331 to 3300,331 to 3300,,,"O=C(NO)c1cnc(N2CC3C(C2)C3NC(=O)c2ccccc2)nc1 (centres unmarked) [Example 13, N-Hydroxy 2-[6-(benzoylamino)-3-azabicyclo[3.1.0]hex-3-yl]pyrimidine-5-carboxamide]",331 to 3300
,> 3300,> 3300,,,"O=C(NO)c1cnc(N2CC3C(C2)C3NS(=O)(=O)c2cccs2)nc1 (centres unmarked) [Example 2, N-Hydroxy 2-{6-[(thien-2-ylsulfonyl)amino]-3-azabicyclo[3.1.0]hex-3-yl}pyrimidine-5-carboxamide]",> 3300

# The next lines start with the compound.
Compound,IC50 [1] [nM],"IC50 ([2]; Homo sapiens, U-937) [nM]","IC50 ([4]; Homo sapiens, HeLa) [nM]",IC50 [2] [nM],IC50 [4] [nM],IC50 [3] [nM]
O=C(NO)c1ccc(N2CC3CN(Cc4ccc5ccccc5c4)CC3C2)nc1 (centres unmarked) [Example 87],< 100,331 to 3300,331 to 3300,,,331 to 3300
"O=C(Cc1ccsc1)NC1C2CN(c3ncc(C(=O)NO)cn3)CC21 (centres unmarked) [Example 11, N-Hydroxy 2-{6-[(thien-3-ylacetyl)amino]-3-azabicyclo[3.1.0]hex-3-yl}pyrimidine-5-carboxamide]",< 100,> 3300,331 to 3300,,,331 to 3300
"O=C(NO)c1cnc(N2CC3CN(Cc4ccc(Cl)cc4)CC3C2)nc1 (centres unmarked) [Example 85, N-Hydroxy 2-[5-(4-chlorobenzyl)hexahydropyrrolo[3,4-c]pyrrol-2(1H)-yl]pyrimidine-5-carboxamide]",< 100,< 330,331 to 3300,,,< 330
"COc1ccc(CNC2C3CN(c4ncc(C(=O)NO)cn4)CC32)cc1 (centres unmarked) [Example 26, N-Hydroxy 2-{6-[(4-methoxybenzyl)amino]-3-azabicyclo[3.1.0]hex-3-yl}pyrimidine-5-carboxamide]",< 100,,,< 330,< 330,< 330
"CC(CNC1C2CN(c3ncc(C(=O)NO)cn3)CC21)c1ccccc1 (centres unmarked) [Example 24, N-Hydroxy 2-{6-[(2-phenylpropyl)amino]-3-azabicyclo[3.1.0]hex-3-yl}pyrimidine-5-carboxamide]",< 100,< 330,331 to 3300,,,< 330
"O=C(NO)c1cnc(N2CC3C(C2)C3NC(=O)c2ccc3ccccc3c2)nc1 (centres unmarked) [Example 5, N-Hydroxy 2-{6-[(naphthalene-2-carbonyl)amino]-3-aza-bicyclo[3.1.0]hex-3-yl}pyrimidine-5-carboxamide]",< 100,331 to 3300,331 to 3300,,,< 330
"O=C(NO)c1cnc(N2CC3C(C2)C3NCc2ccc(F)cc2)nc1 (centres unmarked) [Example 41, N-Hydroxy 2-{6-[(4-fluorobenzyl)amino]-3-azabicyclo[3.1.0]hex-3-yl}pyrimidine-5-carboxamide]",< 100,< 330,331 to 3300,,,< 330
"O=C(NO)c1cnc(N2CC3C(C2)C3NCCC(c2ccccc2)c2ccccc2)nc1 (centres unmarked) [Example 39, N-Hydroxy 2-[6-(3,3-diphenylpropylamino)-3-azabicyclo[3.1.0]hex-3-yl]pyrimidine-5-carboxamide]",< 100,< 330,331 to 3300,,,< 330
"O=C(NO)c1cnc(N2CC3C(C2)C3NC(=O)c2ccc3sccc3c2)nc1 (centres unmarked) [Example 17, N-Hydroxy 2-{6-[(1-benzothien-5-ylcarbonyl)amino]-3-azabicyclo[3.1.0]hex-3-yl}pyrimidine-5-carboxamide]",,331 to 3300,331 to 3300,,,< 330
"CN(C)CCN(C1C2CN(c3ncc(C(=O)NO)cn3)CC21)S(=O)(=O)c1ccc2ccccc2c1 (centres unmarked) [Example 52, N-Hydroxy 2-{6-[(2-dimethylaminoethyl)(naphthalene-2-sulfonyl)-amino]-3-azabicyclo[3.1.0]hex-3-yl}pyrimidine-5-carboxamide]",,331 to 3300,331 to 3300,,,< 330
"O=C(NO)c1cnc(N2CC3C(C2)C3NCC2CCCCC2)nc1 (centres unmarked) [Example 25, N-Hydroxy 2-{6-[(cyclohexylmethyl)amino]-3-azabicyclo[3.1.0]hex-3-yl}pyrimidine-5-carboxamide]",,< 330,< 330,,,< 330
"COc1ccc(CNC2C3CN(c4ncc(C(=O)NO)cn4)CC32)cc1 (centres unmarked) [Example 21, N-Hydroxy 2-{6-[(4-methoxybenzyl)amino]-3-azabicyclo[3.1.0]hex-3-yl}pyrimidine-5-carboxamide]",,< 330,331 to 3300,,,< 330
"O=C(NO)c1cnc(N2CC3C(C2)C3NCc2ccc(Br)cc2)nc1 (centres unmarked) [Example 36, N-Hydroxy 2-{6-[(4-bromobenzyl)amino]-3-azabicyclo[3.1.0]hex-3-yl}pyrimidine-5-carboxamide]",< 100,< 330,,,,< 330
"CN(C)CCCN(C1C2CN(c3ncc(C(=O)NO)cn3)CC21)S(=O)(=O)c1ccc2ccccc2c1 (centres unmarked) [Example 50, N-Hydroxy 2-{6-[(3-dimethylaminopropyl)(naphthalene-2-sulfonyl)amino]-3-azabicyclo[3.1.0]hex-3-yl}pyrimidine-5-carboxamide]",< 100,< 330,,,,< 330

# — US7932246B2, “Histone deacetylase inhibitors” (Chroma Therapeutics Ltd., priority 2005, dated 2011)
